One data set is described as follows: in vivo. Here is the method:
The pharmacokinetics of peripheral 5-HT2A antagonists were studied in the plasma (Tables 11 and 12) and brains (Table 13 and 14) of rats after subcutaneous (SC) dosing. The results were used to interpret the in vivo pharmacological results.
Animals. Male Sprague Dawley rats, aged 8-12 weeks. were used in these studies. Four rats were housed in each cage. […] Temperature and humidity were recorded by an auto-controlled data logger system. All animals were provided laboratory rodent diet and were fasted for 4 h pre-dose and 2 h post-dose. Reverse osmosis water treated with ultraviolet light was provided ad libitum. Animals were randomly assigned to treatment groups.
Drugs and Drug Administration. Test compounds were prepared as described above or commercially obtained. They were administered subcutaneously (SC) at a dose of 1 or 10 mg/kg (as indicated, calculated based on the free base) and at a volume of 5 mL/kg body weight.
Sample Collection and Bioanalysis. […] SC. […] For both studies, immediately after blood collection, plasma was harvested by centrifugation at 4,000 rpm for 10 min at 4° C. and samples were stored at −70±10° C. until bioanalysis. Following blood collection, animals were immediately sacrificed, the abdominal vena-cava was cut open, and the whole body was perfused from the heart using 10 mL of normal saline, and brain samples were collected from all animals. After isolation, brain samples were rinsed three times in ice-cold normal saline (for 5-10 seconds/rinse using ˜5-10 mL normal saline in disposable petri dish for each rinse) and dried on blotting paper. Brain samples were homogenized using ice-cold phosphate-buffered saline (pH 7.4). Total homogenate volume was three times the tissue weight. All homogenates were stored at −70±10° C. until bioanalysis. For bioanalysis, 25 μL aliquots of plasma/brain study samples or spiked plasma/brain calibration standards were added to individual pre-labeled micro-centrifuge tubes followed by 100 μL of an internal standard solution (glipizide, 500 ng/ml in acetonitrile) except for blanks, where 100 μL of acetonitrile was added. Samples were vortexed for 5 minutes and then centrifuged for 10 minutes at 4,000 rpm at 4° C. Following centrifugation, 100 μL of each clear supernatant was transferred to a 96-well plate and analyzed with a fit-for-purpose LC-MS/MS method, with authentic samples of each analyte used for calibration and identification.

A short description of another data set: in vitro. Particulars: for fraction unbound at 4 h, 5 μM: pH 7.4. Here is the method: Method 1. Aliquots of 50 μL loading matrix containing test compound (2 μM final incubation concentration) or control compound in triplicate were transferred to a Sample Collection Plate. The samples were matched with opposite blank buffer to obtain a final volume of 100 μL, with a volume ratio of matrix: Dialysis Buffer of 1:1 (v:v) in each well. Stop solution (200 ng/ml tolbutamide and 200 ng/mL labetalol in ACN) was added to these TO samples of test compound and control compound. The plate was sealed and shaken at 800 rpm for 10 min. An aliquot of 100 μL of the loading matrix containing test compound or control compound was transferred to the donor side of each dialysis well in triplicate and 100 μL of the Dialysis Buffer was loaded to the receiver side of the well. Then the plate was rotated at approximately 100 rpm in a humidified incubator with 5% CO2 at 37±1° C. for 4 hours. At the end of the dialysis, aliquots of 50 μL samples from the buffer side and matrix side of the dialysis device were taken into new 96-well plates (Sample Collection Plates). An equal volume of opposite blank matrix (buffer or matrix) in each sample was added to reach a final volume of 100 μL, with volume ratio of matrix: Dialysis Buffer of 1:1 (v:v) in each well. All samples were further processed by protein precipitation before LC-MS/MS analysis.
Method 2. Aliquots (200 μL) of positive controls and test compounds at 5 μM (triplicates) were separately added to the plasma chamber and […] of phosphate buffered saline (pH 7.4) was added to the buffer chamber of the inserts. After sealing the rapid equilibrium dialysis (RED) device with an adhesive film, dialysis was performed in an incubator at 37° C. with shaking at 100 RPM for 4 hours. Aliquots (50 μL) of warfarin and test compounds were added to four 0.5 mL micro fuse tubes. Two aliquots were frozen immediately (0-minute sample). The other two aliquots were incubated at 37° C. for 4 hours along with the RED device. Following dialysis, an aliquot of 50 μL was removed from each well (both plasma and buffer side) and diluted with an equal volume of opposite matrix (dialyzed with the other matrix) to nullify the matrix effect. Similarly, 50 μL of buffer was added to recovery and stability samples. An aliquot of 100 μL was used for LC-MS/MS analysis following protein precipitation with ACN containing internal standard.

[1] abbreviates: male, Sprague Dawley, rat, in vivo, sc, 1 mg/kg.
Setting [2] is: male, Sprague Dawley, rat, in vivo, sc, 10 mg/kg.

Here are results for five compounds from patent US20240390301A1, “COMBINATIONS OF PERIPHERAL 5-HT2A RECEPTOR ANTAGONISTS AND CENTRAL 5-HT2A RECEPTOR AGONISTS” (priority 2021, published 2024).

The structures appear in SMILES notation. Several values for one entry are separate records, joined by “and”; a condition that tells them apart may be missing. Identical values can stand only once.

The Cmax is the highest concentration seen after dosing. For orientation: half-life means how long it takes for the measured level to halve. Read a low half-life as rapid decline. In general, AUC(0-t) refers to the area under the concentration-time curve up to a stated or last time point. As a reminder, the Tmax is the time from dosing to the highest level. Usually fraction unbound stands for the share of the substance not bound to proteins or other matrix. A higher fraction unbound goes with much free substance. Turning to `CC(CNC(=N)CNc1ccccc1)Oc1cccc(Cl)c1.O=CO` (stereo not drawn) [BW501C67, N-(2-(3-chlorophenoxy)propyl)-2-(phenylamino)acetimidamide formate], in “in vivo” (setting [1]), the Cmax is 91.4 ng/mL and 32.3 ng/g; the concentration at 0.167 h was 91.4 ng/mL and 10.4 ng/g; the concentration at 0.5 h is 73.8 ng/mL and 13.6 ng/g; the half-life is 187 min. Further, the AUC(0-t) in the data set “in vivo” (male, Sprague Dawley, rat, in vivo, sc, 1 mg/kg, AUC0-last (h*ng/mL), brain, 1 mg/kg SC) was found to be 436 ng·h/mL. Also, the AUC(0-t) in the data set “in vivo” (male, Sprague Dawley, rat, in vivo, sc, 1 mg/kg, AUC0-last (h*ng/mL), plasma, 1 mg/kg SC) was determined as 277 ng·h/mL. In addition, in “in vivo” (male, Sprague Dawley, rat, in vivo, sc, 1 mg/kg, Tmax (h), brain, 1 mg/kg SC), the Tmax was 240 min. Further, the Tmax in the data set “in vivo” (male, Sprague Dawley, rat, in vivo, sc, 1 mg/kg, Tmax (h), plasma, 1 mg/kg SC) was determined as 10.2 min. The same compound had a fraction unbound at 4 h, 2 μM in the data set “in vitro” (rat, plasma) of 0.107.
For `CC(C)COc1ccc(CNC(=O)N(Cc2ccc(F)cc2)C2CCN(C(=O)CC[C@H](N)C(=O)O)CC2)cc1` [Compound 14a, (S)-2-amino-5-(4-(1-(4-fluorobenzyl)-3-(4-isobutoxybenzyl)ureido)piperidin-1-yl)-5-oxopentanoic acid], in “in vivo” (setting [1]), the AUC(0-t) came out at 434 ng·h/mL, the concentration peaked (Cmax) at 271 ng/mL, the Tmax was 30 min and the concentration at 0.167 h worked out at 265 ng/mL. For the same compound, in the data set “in vivo” (setting [1]), the concentration at 0.5 h amounted to 271 ng/mL and the half-life is 51 min. Besides, in the data set “in vivo” (setting [2]), the concentration at 0.167 h is 966 ng/mL and 35.6 ng/g; the concentration at 0.5 h is 1530 ng/mL and 40.7 ng/g. Besides, the fraction unbound at 4 h, 5 μM in the data set “in vitro” (rat, plasma) was 0.06.
With `COc1cccc(CCc2ccccc2OCC(CN(C)C)OC(=O)CCC(=O)O)c1` (stereo not drawn) [sarpogrelate], in the data set “in vivo” (setting [2]), the concentration at 0.167 h is 2130 ng/mL and 28.9 ng/g; the concentration at 0.5 h is 2990 ng/mL and 31.8 ng/g. Moreover, the fraction unbound at 4 h, 5 μM in the data set “in vitro” (rat, plasma) was 0.002.
On to `COc1cccc(C(=O)Nc2ccc(OCCN3CCOCC3)c(-c3ccnn3C)c2)c1` [temanogrel], for which, in “in vivo” (setting [2]), the concentration at 0.167 h is 411 ng/mL and 113 ng/g; the concentration at 0.5 h is 518 ng/mL and 148 ng/g. Moreover, in the data set “in vitro” (rat, plasma), the fraction unbound at 4 h, 5 μM turned out to be 0.091.
As to `COc1cccc(OC(C)CNC(=N)Cc2cccc(C)c2)c1.O=C(O)C(F)(F)F` (stereo not drawn) [xylamidine, N-(2-(3-methoxyphenoxy)propyl)-2-(m-tolyl) acetimidamide trifluoroacetate], in the data set “in vivo” (brain, 1 mg/kg SC), the “Tmax” value was determined as 60 min and the “t1/2” value was 289 min. Moreover, the “0.167 h (ng/g) brain concentration” value in the data set “in vivo” (brain, 1 mg/kg SC, 0.167 h) turned out to be 14.4 ng/g. Further, the “0.5 h (ng/g) brain concentration” value in “in vivo” (brain, 1 mg/kg SC, 0.5 h) is given as 35.4 ng/g. Also, in “in vivo” (brain, 10 mg/kg SC, 0.167 h), the “Mean brain concentration 0.167 h” value is on record as 100.8 ng/g. Besides, the “Mean brain concentration 0.5 h” value in the data set “in vivo” (brain, 10 mg/kg SC, 0.5 h) worked out at 60.7 ng/g. For the same compound, in the data set “in vivo” (plasma, 1 mg/kg SC), the “AUC0-last” value came out at 343.6 ng·h/mL, the “Cmax” value is listed as 155.4 ng/mL, the “Tmax” value turned out to be 10.2 min and the “t1/2” value is 103 min. Besides, the “0.167 h (ng/mL) plasma concentration” value in “in vivo” (plasma, 1 mg/kg SC, 0.167 h) was found to be 155.4 ng/mL. Moreover, in “in vivo” (plasma, 1 mg/kg SC, 0.5 h), the “0.5 h (ng/mL) plasma concentration” value turned out to be 133.4 ng/mL. The “Mean plasma concentration 0.167 h” value in “in vivo” (plasma, 10 mg/kg SC, 0.167 h) was 1099.2 ng/mL. For the same compound, the “Mean plasma concentration 0.5 h” value in “in vivo” (plasma, 10 mg/kg SC, 0.5 h) is on record as 670.0 ng/mL. Besides, the “Mean % bound (rat plasma protein binding)” value in the data set “in vitro” (Method 2: RED, 5 μM, 4 hours, 37° C.) was found to be 65.6%.
